Data from patent publication US20240368185A1, “MACROCYCLIC AZOLOPYRIDINES” (Fulcrum Therapeutics, Inc., priority 2021, published 2024).
In brackets after ≈: the same amount, converted by molar mass. Values belong to the compound of their own block, whether it stands above or below them.

Tests used:
[1] = Dynamic vapor sorption (DVS) analysis; format: physicochemical; settings: between about 2 to about 92% relative humidity (RH) at 25° C.
Description: Dynamic vapor sorption (DVS) analysis was performed using a DVS Intrinsic 1. The sample (25 mg) was loaded into a sample pan, suspended from a microbalance and exposed to a humidified stream of nitrogen gas. The sample was held for a minimum of 5 min at each level and only progressed to the next humidity level if there was <0.002% change in weight between measurements (interval: 60 seconds) or 240 min had elapsed.

[2] = physchem; settings: organic solvent or mixture, thermodynamic from solid
Description: (§1) An abbreviated polymorph/solvate screen and approximate solubility determination were performed utilizing each class III solvent and several class II solvents as listed under ICH Guidelines Q3C. […] Form P was chosen as the target polymorph for crystallization.

[3] = physchem; format: physicochemical; settings: organic solvent or mixture, thermodynamic from solid
Description: Crystalline, Form V material of (S)-12-fluoro-4-(2-methylpyridin-3-yl)-7a,8,13,14-tetrahydro-7H-[1,2,4]triazolo[4′,3′:1,6]pyrido[3,2-b]benzofuro[4,3-fg][1,4]oxazonine, free base, was prepared as follows. About 12 mg of Form P material was loaded into a 2 mL vial. […] The solution was stirred overnight and the next day a slurry was observed. The slurry solids were collected and analyzed by XRPD.

[4] = 24 h
Description: as §1

[5] = Wet-milling study (ball mill, 30 s, 1 vol. water); format: physicochemical; settings: milled with 1 vol. water
[6] = Particle size distribution (PSD); format: physicochemical
Description: Several other Experiments (Experiment 2, Experiment 3, Experiment 4, Experiment 5, Experiment 7, and Experiment 8) were performed to study the effect of seed loading, seed size and scale on particle size of final product.
The material as received was characterized by X-Ray Powder Diffraction (XRPD), Polarized Light Microscopy (PLM), Particle Size Distribution (PSD), Thermo-Gravimetric Analysis (TGA) and Differential Scanning Calorimetry (DSC).
In the second batch, crystals with rod morphology and a length of greater than 200 μm were observed. Two final scaled up batches were performed. A 43 gram batch was produced as small seeds and a 22 gram batch was produced using the first 10 gram batch (Crystallization 1) as large seeds to assess the impact of different size seeds on the process. Scanning electron microscopy (SEM) was used to compliment the polarized light microscope (PLM) and particle size distribution (PSD) measurements.

[7] = physchem; settings: 70 °C, organic solvent or mixture, thermodynamic from solid
Description: as §1

[8] = Salt screening: XRPD form after exposure to 95%+ relative humidity for one day; format: physicochemical; set-up: key: Am = amorphous; settings: solid dried under vacuum at 50° C., then 95%+ relative humidity for one day
Description: A stock solution of Form P material of (S)-12-fluoro-4-(2-methylpyridin-3-yl)-7a,8,13,14-tetrahydro-7H-[1,2,4]triazolo[4′,3′:1,6]pyrido[3,2-b]benzofuro[4,3-fg][1,4]oxazonine, free base, was prepared in 2,2,2-trifluoroethanol (50.8 mg/mL). Stock solutions of counter ion were prepared in EtOH.
Salt formation was carried out at room temperature in 2 mL vials. 25.4 mg of Form P free base material (500 μL stock solution) and 1.1 equivalents of counter ion were added to each vial. Solvent was allowed to evaporate at 40° C. overnight with stirring. […] These vials were kept on the hotplate to continue evaporating (temperature increased to 50° C.), while the more-dry samples were dried further under vacuum for 3 hours at 50° C. The samples still containing solvent at the end of the day were left to stir at 30° C. over the weekend to finish evaporating the solvent. These samples were dried further under vacuum for 3 hours at 50° C.
Approximately 20 volumes of solvent (0.5 mL) was added to each vial containing the dried solids. The three solvents selected were EtOH, EtOAc, and IPA:water (9:1 vol). Once solvents were added, the mixtures (or solutions) were stirred at room temperature. When slurries were formed, the solids were filtered for XRPD analysis.
XRPD analysis was done in three stages. XRPD of the wet cake was done for all collected samples. […]

[9] = format: physicochemical
Description: Crystalline, Form W material of (S)-12-fluoro-4-(2-methylpyridin-3-yl)-7a,8,13,14-tetrahydro-7H-[1,2,4]triazolo[4′,3′:1,6]pyrido[3,2-b]benzofuro[4,3-fg][1,4]oxazonine, free base, was prepared as follows. About 2.5 mg of (S)-12-fluoro-4-(2-methylpyridin-3-yl)-7a,8,13,14-tetrahydro-7H-[1,2,4]triazolo[4′,3′:1,6]pyrido[3,2-b]benzofuro[4,3-fg][1,4]oxazonine, maleic acid salt (Form 7-A), was loaded into a vial. 1 mL of water was added, and the mixture was warmed to 37° C. Additional water was added to the slurry, which thinned considerably and then appeared to start precipitating a fine white solid. This was viewed as likely disproportionation and additional water was not added. The mixture was stirred overnight, and the following day the fine solid suspended in the solution was collected and analyzed by XRPD. It was observed that the maleic acid salt had disproportionated over the slurry time.

[10] = Crystallization 1, 10 gram scale, milled Form P as seeds
[11] = Crystallization 2, 10 gram scale, crystals from Crystallization 1 as seeds
[12] = Experiment 1, initial process, 0.5 w/w % seed
[13] = Experiment 2, effect of seed loading, 0.5 w/w % milled seed
[14] = Experiment 3, effect of seed loading, 3.0 w/w % milled seed
[15] = Experiment 4, effect of seed size, 1.0 w/w % large seed
[16] = Experiment 5, effect of seed size, 1.0 w/w % milled seed
[17] = Experiment 6, wet milling study, after milling
[18] = Experiment 6, wet milling study, before milling
[19] = Experiment 7, effect of scale, 3 g scale
[20] = Experiment 8, effect of scale, 10 g scale

- DVS reversable total mass change [1]: about 10.3 wt. %
Compound: Cc1ncccc1-c1cc2c(n3cnnc13)NCc1c(F)ccc3c1C(CO3)CO2 (stereo in doubt) [Form E, (S)-12-fluoro-4-(2-methylpyridin-3-yl)-7a,8,13,14-tetrahydro-7H-[1,2,4]triazolo[4′,3′:1,6]pyrido[3,2-b]benzofuro[4,3-fg][1,4]oxazonine]

- DVS reversable total mass change [1]: about 7.6 wt. %
Compound: Cc1ncccc1-c1cc2c(n3cnnc13)NCc1c(F)ccc3c1C(CO3)CO2 (stereo in doubt) [Form H, (S)-12-fluoro-4-(2-methylpyridin-3-yl)-7a,8,13,14-tetrahydro-7H-[1,2,4]triazolo[4′,3′:1,6]pyrido[3,2-b]benzofuro[4,3-fg][1,4]oxazonine]

- solubility [2]: > 10 mg/mL
- solubility [3]: 167 to 333 mg/mL (≈ 414 to 825 mM)
- purity after slurry (potential degradation) [4]: 99.9%
- DVS reversable total mass change [1]: about 0.53 wt. %
- Particle Size Distribution D(10) [6, 10]: 37.2 µm
- Particle Size Distribution D(50) [6, 10]: 115 µm
- Particle Size Distribution D(90) [6, 10]: 196 µm
- Particle Size Distribution D(10) [6, 11]: 23.4 µm
- Particle Size Distribution D(50) [6, 11]: 126 µm
- Particle Size Distribution D(90) [6, 11]: 634 µm
- Particle Size Distribution (PSD) D10 [6, 12]: 19 μm
- Particle Size Distribution (PSD) D50 [6, 12]: 100 μm
- Particle Size Distribution (PSD) D90 [6, 12]: 213 μm
- Particle Size Distribution (PSD) D10 [6, 13]: 17 μm
- Particle Size Distribution (PSD) D50 [6, 13]: 93 μm
- Particle Size Distribution (PSD) D90 [6, 13]: 187 μm
- Particle Size Distribution (PSD) D10 [6, 14]: 7 μm
- Particle Size Distribution (PSD) D50 [6, 14]: 31 μm
- Particle Size Distribution (PSD) D90 [6, 14]: 83 μm
- Particle Size Distribution (PSD) D10 [6, 15]: 28 μm
- Particle Size Distribution (PSD) D50 [6, 15]: 90 μm
- Particle Size Distribution (PSD) D90 [6, 15]: 171 μm
- Particle Size Distribution (PSD) D10 [6, 16]: 15 μm
- Particle Size Distribution (PSD) D50 [6, 16]: 82 μm
- Particle Size Distribution (PSD) D90 [6, 16]: 164 μm
- Particle Size Distribution (PSD) D10 [6, 17]: 11 μm
- Particle Size Distribution (PSD) D50 [6, 17]: 37 μm
- Particle Size Distribution (PSD) D90 [6, 17]: 95 μm
- Particle Size Distribution (PSD) D10 [6, 18]: 32 μm
- Particle Size Distribution (PSD) D50 [6, 18]: 199 μm
- Particle Size Distribution (PSD) D90 [6, 18]: 372 μm
- Particle Size Distribution (PSD) D10 [6, 19]: 11 μm
- Particle Size Distribution (PSD) D50 [6, 19]: 48 μm
- Particle Size Distribution (PSD) D90 [6, 19]: 113 μm
- Particle Size Distribution (PSD) D10 [6, 20]: 11 μm
- Particle Size Distribution (PSD) D50 [6, 20]: 45 μm
- Particle Size Distribution (PSD) D90 [6, 20]: 121 μm
- D10 ([6]; starting material as received): 1.99 μm
- D50 ([6]; starting material as received): 3.33 μm
- D90 ([6]; starting material as received): 5.35 μm
- solubility [7]: 56.7 mg/mL (≈ 140 mM)
Compound: Cc1ncccc1-c1cc2c(n3cnnc13)NCc1c(F)ccc3c1C(CO3)CO2 (stereo in doubt) [Form P, (S)-12-fluoro-4-(2-methylpyridin-3-yl)-7a,8,13,14-tetrahydro-7H-[1,2,4]triazolo[4′,3′:1,6]pyrido[3,2-b]benzofuro[4,3-fg][1,4]oxazonine]
- crystallinity and solid form purity after wet milling [5]: maintained crystallinity and solid form purity

- DVS reversable total mass change [1]: about 0.97 wt. %
Compound: (S)-12-fluoro-4-(2-methylpyridin-3-yl)-7a,8,13,14-tetrahydro-7H-[1,2,4]triazolo[4′,3′:1,6]pyrido[3,2-b]benzofuro[4,3-fg][1,4]oxazonine [Form 13-A]

The next lines start with the compound.

Compound: (S)-12-fluoro-4-(2-methylpyridin-3-yl)-7a,8,13,14-tetrahydro-7H-[1,2,4]triazolo[4′,3′:1,6]pyrido[3,2-b]benzofuro[4,3-fg][1,4]oxazonine [Benzenesulfonic acid (1)]
- XRPD Form humidity ([8]; slurry solvent EtOAc): Am
- XRPD Form humidity ([8]; slurry solvent EtOH): Am

Compound: (S)-12-fluoro-4-(2-methylpyridin-3-yl)-7a,8,13,14-tetrahydro-7H-[1,2,4]triazolo[4′,3′:1,6]pyrido[3,2-b]benzofuro[4,3-fg][1,4]oxazonine [Form 5-A]
- DVS reversable total mass change [1]: about 3.1 wt. %

Compound: (S)-12-fluoro-4-(2-methylpyridin-3-yl)-7a,8,13,14-tetrahydro-7H-[1,2,4]triazolo[4′,3′:1,6]pyrido[3,2-b]benzofuro[4,3-fg][1,4]oxazonine [Form 7-A]
- stability of salt in water slurry [9]: disproportionated

Compound: (S)-12-fluoro-4-(2-methylpyridin-3-yl)-7a,8,13,14-tetrahydro-7H-[1,2,4]triazolo[4′,3′:1,6]pyrido[3,2-b]benzofuro[4,3-fg][1,4]oxazonine [Form 8-B]
- DVS reversable total mass change [1]: about 0.82 wt. %

Compound: (S)-12-fluoro-4-(2-methylpyridin-3-yl)-7a,8,13,14-tetrahydro-7H-[1,2,4]triazolo[4′,3′:1,6]pyrido[3,2-b]benzofuro[4,3-fg][1,4]oxazonine [Form 10-A]
- DVS reversable total mass change [1]: about 1.4 wt. %
